The source of these data is patent US20220160734A1, “TREATMENT OF FIBROIDS WITH VITAMIN D AND AN AGENT SUCH AS EPIGALLOCATECHIN GALLATE (EGCG)” (LO.LI. PHARMA S.R.L., priority 2019, published 2022).

Each structure is given as a SMILES string.

The subject of data set [1] is human uterine fibroid cells. The conditions noted are these: in vitro; cited from earlier work.
The test system of data set [2] is uterine fibroids. The conditions noted are these: animal models; cited from earlier work.
In data set [3] the test system is uterine fibroids. Conditions: women with uterine fibroids after treatment with EGCG; cited from earlier work.
Data set [4] concerns fibronectin release in cultured fibroblasts. Put plainly: Fibronectin release in TGF-β1-stimulated fibroblasts, western blot. It counts as cell-based, human. The conditions noted are these: Phase I; 18 days culture, 24 h TGF-β1 10 ng/ml, then 24 h treatment; vitamin D3 0.005 μg/ml, EGCG 0.03 mg/ml; FIG. 1. From the text:
Anti-fibrotic properties of epigallocatechin gallate (EGCG) and vitamin D3 (alone or in combination) have been preliminary tested in human normal fibroblasts in 2D cultures. Human normal fibroblasts used in this experiment are Primary cell cultures. To discard any effect on fibroblast viability, proliferation and apoptosis were also investigated. Fibroblasts culture: DMEM, 10% FBS, 1% L-Glu, 1% Pen/strep for 18 days; Fibroblasts were allowed to grow in the above fibroblast culture for 18 days until reaching 50% confluence. Then, the fibrotic process was fostered by adding 10 ng/ml TGF-β1 (Peprotech, cat no. #100-21-10UG). […]
(§1) Fibronectin and collagen release were both measured in western blot for assessing the anti-fibrotic effect. […]
(§2) Fibronectin and collagen release from fibroblasts were analyzed at 24 hours after addition of EGCG or vitamin D3 in previously stimulated fibroblast, as described above. […]
Data are reported in FIGS. 3 A-B and 4 A-B and expressed as fold-decrease of OD-Units in respect to the control value, which was obtained for fibroblasts after 24 hours of stimulation with TGF-β1 (e.g. a decrease of 50% between two measurements would be referred to a “half-fold change”). Fold change is a measure describing how much a quantity changes between an original and a subsequent measurement. […]
Background: In western blotting, separated proteins are transferred to a membrane and probed.

Data set [5] deals with collagen release in cultured fibroblasts. Put plainly: Collagen release in TGF-β1-stimulated fibroblasts, western blot. It counts as cell-based, human. Conditions: Phase I, 18 days culture, 24 h TGF-β1 10 ng/ml, then 24 h treatment, vitamin D3 0.005 μg/ml, EGCG 0.03 mg/ml, FIG. 2.
From the text: (§3) Anti-fibrotic properties of epigallocatechin gallate (EGCG) and vitamin D3 (alone or in combination) have been preliminary tested in human normal fibroblasts in 2D cultures. Human normal fibroblasts used in this experiment are Primary cell cultures. To discard any effect on fibroblast viability, proliferation and apoptosis were also investigated. Fibroblasts culture: DMEM, 10% FBS, 1% L-Glu, 1% Pen/strep for 18 days; Fibroblasts were allowed to grow in the above fibroblast culture for 18 days until reaching 50% confluence. Then, the fibrotic process was fostered by adding 10 ng/ml TGF-β1 (Peprotech, cat no. #100-21-10UG). 24 hours after addition of TGF-β1, fibroblasts were thoroughly washed with PBS, fresh fibroblast culture medium and the below formulas were added. Fibroblasts were then allowed to grow for an additional 24 hours.
Vitamin D3 (cholecalciferol, CAS-No. 67-97-0): 0.005 μg/ml in DMSO. Vitamin D3 was dissolved in DMSO and after that further dilutions were made in PBS. Essentially, the cells receive the same “dose” of DMSO, this allows a clean comparison of the test. In this case, DMSO 1:10000 was used;
EGCG (GREEN TEA DRY EXTRACT 95% POLYPHENOLS; CAS-No. 84650-60-2): 0.03 mg/ml in H2O;
combined treatment: EGCG 0.03 mg/ml+vitamin D3 0.005 μg/ml;
control: vehicle only (DMSO);
as §1, §2
Data are reported in FIGS. 3 A-B and 4 A-B and expressed as fold-decrease of OD-Units in respect to the control value, which was obtained for fibroblasts after 24 hours of stimulation with TGF-β1 (e.g. a decrease of 50% between two measurements would be referred to a “half-fold change”). Fold change is a measure describing how much a quantity changes between an original and a subsequent measurement. It is defined as the ratio between the two quantities; for quantities A and B, then the fold change of B with respect to A is B/A.

The next data set deals with human normal fibroblasts. Put plainly: Fibroblast proliferation, viability and morphology. Conditions: Phase I; vitamin D3 0.005 μg/ml, EGCG 0.03 mg/ml; data not shown.
From the text: as §3

Another data set has as its system uterine fibroid tumors. Conditions: mice; cited from earlier work.

Turning to `C=C1/C(=C\C=C2/CCC[C@]3(C)[C@@H]([C@H](C)CCCC(C)(C)O)CC[C@@H]23)C[C@@H](O)C[C@@H]1O` [1,25-dihydroxyvitamin D], the “uterine fibroid cell proliferation” value in data set [1] is reported as “inhibits”. Further, the “size of uterine fibroids / uterine fibroid tumor growth” value with uterine fibroids [2] is “decreases the size”.

For the compound `O=C(O[C@@H]1Cc2c(O)cc(O)cc2O[C@@H]1c1cc(O)c(O)c(O)c1)c1cc(O)c(O)c(O)c1` [EGCG, epigallocatechin gallate], in the data set with uterine fibroids [3], the “reduction in the total fibroid volume” value is recorded as 32.6%. Besides, the “fibronectin release (production)” value in data set [4] was “significantly reduces”. Also, in data set [5], the “collagen release (production)” value was “significantly reduces”. In the data set with human normal fibroblasts, the fibroblasts proliferation rate result is on record as “does not significantly modify” and the fibroblasts viability entry is reported as “does not significantly modify”. In addition, the “volume of uterine fibroid tumors” value in the data set with uterine fibroid tumors is recorded as “reduces the volume”. Moreover, in data set [1], the “apoptosis in human uterine fibroid cells” value is on record as “induces apoptosis” and the “uterine fibroid cell proliferation” value was “inhibits proliferation”.

As for `C=C1CC[C@H](O)C/C1=C/C=C1\CCC[C@]2(C)[C@@H]([C@H](C)CCCC(C)C)CC[C@@H]12` [Vitamin D3, cholecalciferol], the “fibronectin release (production)” value in data set [4] was “slightly increases”. Further, the “collagen release (production)” value in data set [5] is reported as “significantly reducing”; in data set [5] (listed as Vitamin D), “reduces”. In the data set with human normal fibroblasts, the fibroblasts proliferation rate result is reported as “does not significantly modify”. In the data set with human normal fibroblasts, the fibroblasts viability result was “does not significantly modify”. Besides, the “uterine fibroid cell proliferation” value in data set [1] was “reduces”. In the data set on uterine fibroids [2], the “size of uterine fibroids / uterine fibroid tumor growth” value is “reduces”.
